Consider 4 compounds from patent US8461362B2, “Protein phosphatase 2A-activating agents” (The Ohio State University Research Foundation, priority 2009, dated 2013).

Assay [1] relates to androgen-independent prostate cancer. The conditions noted are these: minimally pretreated patients with androgen-independent prostate cancer; cited from earlier work.
In assay [2] the test system is AR and its target gene product PSA in LNCaP cells. Nature of the assay: Western blot of AR and PSA expression in LNCaP cells. The following applies: PP2A inhibitor co-treatment with VES or TS-1. It is filed as cell-based. The protocol: (§1) Cells cultured in T25 flasks were collected by scraping, and cell pellets were washed once with PBS. Cells were lysed in a lysis buffer consisting of 1% SDS, 10 mM EDTA and 50 mM Tris-HCl, pH 8.1, in the presence of a commercial protease inhibitor cocktail from Aldrich-Sigma (2 mM AEBSF, 1 mM EDTA, 130 μM bestatin, 14 μM E-64, 1 μM leupeptin, and 0.3 μM aprotinin). Following a 10-sec sonication using 20% output in a Virsonic 300 sonicator (Virtis, Gardiner N.Y.) to disrupt cellular organelles and genomic DNA, cell lysates were centrifuged at 15,200×g for 15 minutes. One μL of the suspension was used for protein determination using a colorimetric BCA assay (Pierce, Rockford, Ill.), and to the remaining solution was added an equivalent volume of 2×SDS-polyacrylamide gel electrophoresis sample loading buffer (62.5 mM Tris-HCl, pH 6.8, 4% SDS, 5% β-mercaptoethanol, 20% glycerol, and 0.1% bromophenol blue), and boiled for 5 min. Equal amounts of proteins were resolved in 8% SDS-polyacrylamide gels, and transferred to nitrocellulose membranes using a semidry transfer cell. The transblotted membrane was washed twice with Tris-buffered saline containing 0.1% Tween 20 (TBST). After blocking with TBST containing 5% nonfat milk for 40 min, the membrane was incubated with the appropriate primary antibody in TBST-1% nonfat milk at 4° C. overnight. All primary antibodies were diluted 1:1000 in 1% nonfat milk-containing TBST. After treatment with the primary antibody, the membrane was washed three times with TBST for a total of 15 min, followed by incubation with goat anti-rabbit or anti-mouse Immunoglobulin G (IgG)-horseradish peroxidase conjugates (diluted 1:2000) for 1 h at room temperature and four washes with TBST for a total of 1 h. The immunoblots were visualized by enhanced chemiluminescence.

For another assay, the system named is Sp1. Nature of the assay: Sp1 protein expression, stability and ubiquitination in LNCaP cells. It is filed as cell-based. The following applies: proteasome inhibition, LNCaP cells treated with TS-1. The protocol: as §1
LNCaP cells were co-transfected with 5 μg each of Flag-Sp1 and HA-ubiquitin plasmids in an Amaxa Nucleofector using a LNCaP-specific nucleofector kit. These transiently transfected cells were seeded in 6-well plates at 2×10^5 per well. After 48-h incubation, cells were exposed to VES or TS-1 at the indicated concentration for 48 h, and lysed by a radioimmunoprecipitation assay lysis buffer (Santa Cruz Biotechnology) in the presence of a freshly prepared cocktail of phosphatase and protease inhibitors (2 mmol/L AEBSF, 1 mM EDTA, 130 μM bestatin, 14 μM E-64, 1 μM leupeptin, and 0.3 μM aprotinin, 2 mM imidazole, 1 mM sodium fluoride, 1.15 mM sodium molybdate, 1 mM sodium orthovanadate, and 4 mmol/L sodium tartrate dihydrate). After centrifugation at 13,000×g for 15 min, the supernatants were collected, preincubated with protein A/G agarose (Santa Cruz Biotechnology) for 15 min, and centrifuged at 1,000×g for 5 min. Supernatant (20 μL) were stored at 4° C. to be used as input, whereas the remaining supernatant was exposed to 4 μg of anti-Sp1 antibodies at 4° C. for 12 h, followed by protein A/G agarose beads at 4° C. for another 2 h. After brief centrifugation, immunoprecipitates were collected, washed with the aforementioned lysis buffer four times, suspended in 2×SDS sample buffer, and subjected to Western blot analysis with antibodies against HA and Flag.

Residues, ends and D or L forms follow the SMILES beside them. *: point of attachment. Cbz = O=C(OCc1ccccc1)*

Consider `Cn1cncc1[C@@](N)(c1ccc(Cl)cc1)c1ccc2c(c1)c(-c1cccc(Cl)c1)cc(=O)n2C` [R115777], for which the “anti-tumor activity in patients” value in assay [1] is recorded as “little anti-tumor activity”.
With `C=C1[C@@H](O)[C@@H]2O[C@]3(CC[C@H](/C=C/[C@@H](C)[C@@H]4CC(C)=C[C@@]5(O[C@H](C[C@@](C)(O)C(=O)O)CC[C@H]5O)O4)O3)CC[C@H]2O[C@@H]1[C@@H](O)C[C@H](C)[C@H]1O[C@@]2(CCCCO2)CC[C@H]1C` [okadaic acid], in assay [2], the “protection from VES/TS-1 suppression of phosphorylation or expression of JNK, Sp1 and AR” value is recorded as “could protect cells from the suppressive effect”.
`CC[C@H](C)[C@H](NC(=O)[C@H]([C@@H](C)CC)N(C)C(C)=O)C(=O)N[C@H](C(=O)N[C@@H](CC(C)C)C(=O)[C@@]1(C)CO1)[C@@H](C)O` [epoxomicin]: in the assay on Sp1, the “protection of Sp1 from TS-1-facilitated ablation” value is on record as “protected Sp1 from TS-1-facilitated ablation”.
Take `CC(C)C[C@@H](C=O)NC(=O)[C@H](CC(C)C)NC(=O)[C@H](CC(C)C)NC(=O)OCc1ccccc1` [MG-132] (Cbz-Leu-Leu-Leu-aldehyde): the “protection of Sp1 from TS-1-facilitated ablation” value in the assay with Sp1 is on record as “protected Sp1 from TS-1-facilitated ablation”.
